Reference: US10457655B2, “Compounds and compositions for inhibition of FASN” (FORMA Therapeutics, Inc., priority 2013, dated 2019)

Each compound was assayed against FASN enzyme (Homo sapiens, UniProt P49327) (assay: Enzymatic Assay for FASN Inhibitors). Conditions: not given.
Format: biochemical
In short: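 40 nM FASN preincubated with compound 60 min at 25° C in HEPES pH 7.3 buffer with 0.04% Triton X-100. Then 20 μM acetyl-CoA, 60 μM malonyl-CoA and 100 μM NADPH added for 90 min, quenched with CPM thiol probe; fluorescence 360/530 nm, IC50 by four-parameter fit.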

Sequence of FASN enzyme (P49327 whole entry): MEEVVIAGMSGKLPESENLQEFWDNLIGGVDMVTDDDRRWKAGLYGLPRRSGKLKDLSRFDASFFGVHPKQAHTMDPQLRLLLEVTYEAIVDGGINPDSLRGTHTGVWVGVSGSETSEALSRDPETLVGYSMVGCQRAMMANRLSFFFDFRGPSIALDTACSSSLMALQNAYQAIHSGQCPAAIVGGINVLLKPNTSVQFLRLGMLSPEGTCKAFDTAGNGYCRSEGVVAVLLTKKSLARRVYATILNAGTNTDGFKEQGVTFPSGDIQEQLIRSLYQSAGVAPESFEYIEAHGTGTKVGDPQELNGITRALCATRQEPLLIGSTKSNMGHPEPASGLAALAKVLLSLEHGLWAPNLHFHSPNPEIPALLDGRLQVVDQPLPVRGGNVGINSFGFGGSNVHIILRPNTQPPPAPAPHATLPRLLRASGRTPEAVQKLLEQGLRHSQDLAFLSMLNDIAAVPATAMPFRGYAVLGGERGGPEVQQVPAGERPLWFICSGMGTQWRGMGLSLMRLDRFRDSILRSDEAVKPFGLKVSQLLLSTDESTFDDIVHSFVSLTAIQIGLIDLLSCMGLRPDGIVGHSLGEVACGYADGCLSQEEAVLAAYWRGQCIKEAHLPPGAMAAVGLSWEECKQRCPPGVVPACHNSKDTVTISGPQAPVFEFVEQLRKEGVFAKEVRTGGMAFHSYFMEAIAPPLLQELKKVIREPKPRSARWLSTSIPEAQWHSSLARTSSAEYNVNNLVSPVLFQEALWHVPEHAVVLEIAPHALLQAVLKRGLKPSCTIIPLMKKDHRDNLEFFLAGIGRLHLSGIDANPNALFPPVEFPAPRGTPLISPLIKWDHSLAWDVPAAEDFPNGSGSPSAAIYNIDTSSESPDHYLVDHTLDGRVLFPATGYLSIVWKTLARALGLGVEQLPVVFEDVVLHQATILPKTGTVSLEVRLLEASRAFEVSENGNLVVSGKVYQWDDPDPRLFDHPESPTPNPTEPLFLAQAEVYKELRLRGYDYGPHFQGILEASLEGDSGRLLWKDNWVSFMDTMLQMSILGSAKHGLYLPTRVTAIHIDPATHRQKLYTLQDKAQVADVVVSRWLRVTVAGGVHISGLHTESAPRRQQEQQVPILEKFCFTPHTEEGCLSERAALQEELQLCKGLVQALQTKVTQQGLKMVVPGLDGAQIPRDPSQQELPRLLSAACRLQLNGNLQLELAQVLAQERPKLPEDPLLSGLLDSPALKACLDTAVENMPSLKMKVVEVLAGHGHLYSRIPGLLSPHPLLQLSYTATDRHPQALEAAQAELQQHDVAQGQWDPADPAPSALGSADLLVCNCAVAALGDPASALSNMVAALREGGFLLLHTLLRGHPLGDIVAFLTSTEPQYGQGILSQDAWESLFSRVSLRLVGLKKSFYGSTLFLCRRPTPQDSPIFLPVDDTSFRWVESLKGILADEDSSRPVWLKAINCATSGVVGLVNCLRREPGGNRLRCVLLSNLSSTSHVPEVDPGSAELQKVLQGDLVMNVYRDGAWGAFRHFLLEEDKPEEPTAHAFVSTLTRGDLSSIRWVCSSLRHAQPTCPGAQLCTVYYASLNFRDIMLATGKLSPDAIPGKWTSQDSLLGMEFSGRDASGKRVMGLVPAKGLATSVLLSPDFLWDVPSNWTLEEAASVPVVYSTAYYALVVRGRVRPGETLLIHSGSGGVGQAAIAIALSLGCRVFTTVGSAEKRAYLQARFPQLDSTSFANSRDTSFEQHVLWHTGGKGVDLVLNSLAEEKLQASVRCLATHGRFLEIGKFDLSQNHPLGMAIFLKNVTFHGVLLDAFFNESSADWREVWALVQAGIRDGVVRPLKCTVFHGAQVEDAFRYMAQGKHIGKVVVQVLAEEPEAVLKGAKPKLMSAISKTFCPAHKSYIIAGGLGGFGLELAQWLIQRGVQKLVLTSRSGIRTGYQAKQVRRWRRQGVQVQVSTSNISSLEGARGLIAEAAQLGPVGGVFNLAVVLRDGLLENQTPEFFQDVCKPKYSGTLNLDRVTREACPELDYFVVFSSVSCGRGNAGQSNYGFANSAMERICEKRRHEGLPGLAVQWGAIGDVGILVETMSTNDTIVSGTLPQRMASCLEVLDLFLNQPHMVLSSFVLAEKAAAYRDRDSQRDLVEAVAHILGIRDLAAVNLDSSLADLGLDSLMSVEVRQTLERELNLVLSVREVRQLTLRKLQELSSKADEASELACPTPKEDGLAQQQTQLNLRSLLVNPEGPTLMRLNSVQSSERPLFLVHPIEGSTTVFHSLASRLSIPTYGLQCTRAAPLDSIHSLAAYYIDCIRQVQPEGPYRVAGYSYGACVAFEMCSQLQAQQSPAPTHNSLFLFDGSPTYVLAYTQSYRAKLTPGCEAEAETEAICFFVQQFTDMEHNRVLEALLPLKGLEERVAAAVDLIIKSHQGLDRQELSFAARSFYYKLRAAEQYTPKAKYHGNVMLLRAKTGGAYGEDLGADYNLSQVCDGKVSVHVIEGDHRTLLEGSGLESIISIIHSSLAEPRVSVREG

Question: How did the IC50 turn out when O=C(c1ccc(-c2cccc(S(=O)(=O)C3CC3)c2)cc1F)N1CCN(C(=O)C2(O)CC2)CC1 [1-(4-{4-[3-(cyclopropanesulfonyl)phenyl]-2-fluorobenzoyl}piperazine-1-carbonyl)cyclopropan-1-ol] was run?
Answer: < 500 nM

Question: With Cc1nn(-c2ccc(C(=O)N3CCN(C(=O)C4(O)CC4)CC3)cc2)c2ccccc12 [(4-(1-hydroxycyclopropane-1-carbonyl)piperazin-1-yl)(4-(3-methyl-1H-indazol-1-yl)phenyl)methanone] as the compound, how does the IC50 read?
Answer: < 500 nM

Question: How did the IC50 turn out when Nc1cc(-c2cccc(-c3ccc(C(=O)N4CCN(C(=O)C5(N)CC5)CC4)c(F)c3)c2)no1 [3-(3-{4-[4-(1-aminocyclopropanecarbonyl)piperazine-1-carbonyl]-3-fluorophenyl}phenyl)-1,2-oxazol-5-amine] was run?
Answer: < 500 nM

Question: Which IC50 does the source give for C[C@@H]1CN(C(=O)c2ccc(-c3nc4ccc(F)cc4o3)cc2)CCN1C(=O)C1(O)CC1 [1-[(2R)-4-[4-(6-fluoro-1,3-benzoxazol-2-yl)benzoyl]-2-methylpiperazine-1-carbonyl]cyclopropan-1-ol] here?
Answer: < 500 nM

Question: With N#CCc1cccc(-c2ccc(C(=O)N3CCN(C(=O)C4(O)CC4)CC3)cc2)c1 [2-(3-{4-[4-(1-hydroxycyclopropanecarbonyl)piperazine-1-carbonyl]phenyl}phenyl)acetonitrile] as the compound, how does the IC50 read?
Answer: < 500 nM

Question: For O=C(c1ccc(N2CCc3sccc3C2)cc1)N1CCN(C(=O)C2(O)CC2)CC1 [1-[4-(4-{4H,5H,6H,7H-thieno[3,2-c]pyridin-5-yl}benzoyl)piperazine-1-carbonyl]cyclopropan-1-ol], which IC50 is on record?
Answer: < 500 nM

Question: With C[C@H]1CN(C(=O)c2ccc(-c3ccc4cnn(C)c4c3)cc2)CCN1C(=O)C1(O)CC1 [1-[(2S)-2-methyl-4-[4-(1-methyl-1H-indazol-6-yl)benzoyl]piperazine-1-carbonyl]cyclopropan-1-ol] as the compound, how does the IC50 read?
Answer: < 500 nM

Question: O=C(Nc1noc2cc(-c3ccc(C(=O)N4CCN(C(=O)C5(O)CC5)CC4)cc3)ccc12)C1CC1 [N-(6-{4-[4-(1-hydroxycyclopropanecarbonyl)piperazine-1-carbonyl]phenyl}-1,2-benzoxazol-3-yl)cyclopropanecarboxamide] was tested. Which IC50 did it give?
Answer: < 500 nM

Question: With O=C(c1ccc(-c2n[nH]c3c(F)cccc23)cc1)N1CCN(C(=O)C2(O)CC2)CC1 [1-{4-[4-(7-fluoro-1H-indazol-3-yl)benzoyl]piperazine-1-carbonyl}cyclopropan-1-ol] as the compound, how does the IC50 read?
Answer: < 500 nM

Question: N#Cc1ccc2oc(-c3ccc(C(=O)N4CCN(C(=O)C5(O)CC5)CC4)cc3)nc2c1 [2-[4-({4-[(1-hydroxycyclopropyl)carbonyl]piperazin-1-yl}carbonyl)phenyl]-1,3-benzoxazole-5-carbonitrile] was tested. Which IC50 did it give?
Answer: < 500 nM

Question: Which IC50 does the source give for CC1Cc2ccccc2CN1c1ccc(C(=O)N2CCN(C(=O)C3(O)CC3)CC2)cc1 (stereo not drawn) [1-{4-[4-(3-methyl-1,2,3,4-tetrahydroisoquinolin-2-yl)benzoyl]piperazine-1-carbonyl}cyclopropan-1-ol] here?
Answer: < 500 nM

Question: With Cn1cc2ccc(-c3ccc(C(=O)N4CCN(C(=O)C5(O)CC5)CC4)c(F)c3)cc2n1 as the compound, how does the IC50 read?
Answer: < 500 nM

Question: For Nc1noc2ccc(-c3ccc(C(=O)N4CCN(C(=O)C5(N)CC5)CC4)cc3)cc12 [5-{4-[4-(1-aminocyclopropanecarbonyl)piperazine-1-carbonyl]phenyl}-1,2-benzoxazol-3-amine], which IC50 is on record?
Answer: < 500 nM

Question: How did the IC50 turn out when Cn1ncc2ccc(-c3ccc(C(=O)N4CCN(C(=O)C5(O)CC5)CC4)c(F)c3)cc21 [1-{4-[2-fluoro-4-(1-methyl-1H-indazol-6-yl)benzoyl]piperazine-1-carbonyl}cyclopropan-1-ol] was run?
Answer: < 500 nM

Question: How did the IC50 turn out when Cn1cnc2cc(-c3cc(F)c(C(=O)N4CCN(C(=O)C5(O)CC5)CC4)c(F)c3)ccc21 [1-{4-[2,6-difluoro-4-(1-methyl-1H-1,3-benzodiazol-5-yl)benzoyl]piperazine-1-carbonyl}cyclopropan-1-ol] was run?
Answer: < 500 nM

Question: For Cc1cc2ccccc2n1-c1ccc(C(=O)N2CCN(C(=O)C3(O)CC3)CC2)cc1 [(4-(1-hydroxycyclopropane-1-carbonyl)piperazin-1-yl)(4-(2-methyl-1H-indol-1-yl)phenyl)methanone], which IC50 is on record?
Answer: < 500 nM

Question: O=C(c1ccc(-c2cccc(N3CCCC3=O)c2)cc1)N1CCN(C(=O)C2(O)CC2)CC1 [1-(3-{4-[4-(1-hydroxycyclopropanecarbonyl)piperazine-1-carbonyl]phenyl}phenyl)pyrrolidin-2-one] was tested. Which IC50 did it give?
Answer: < 500 nM

Question: How did the IC50 turn out when C[C@@H]1CN(C(=O)c2ccc(-c3ccc4c(c3)ncn4C)cc2)C[C@H](C)N1C(=O)C1(O)CC1 [1-[(2R,6S)-2,6-dimethyl-4-[4-(1-methyl-1H-1,3-benzodiazol-5-yl)benzoyl]piperazine-1-carbonyl]cyclopropan-1-ol] was run?
Answer: < 500 nM

Question: Which IC50 does the source give for Cc1n[nH]c2ncc(-c3ccc(C(=O)N4CCN(C(=O)C5(O)CC5)CC4)cc3)cc12 [1-[4-(4-{3-methyl-1H-pyrazolo[3,4-b]pyridin-5-yl}benzoyl)piperazine-1-carbonyl]cyclopropan-1-ol] here?
Answer: < 500 nM

Question: Cn1cc2ccc(-c3ccc(C(=O)N4CCN(C(=O)C5(N)CCC5)CC4)c(F)c3)cc2n1 [1-{4-[2-fluoro-4-(2-methyl-2H-indazol-6-yl)benzoyl]piperazine-1-carbonyl}cyclobutan-1-amine] was tested. Which IC50 did it give?
Answer: < 500 nM

Question: For Cc1cc2ccccc2n1-c1ccc(C(=O)N2CCN(C(=O)C3(O)CC3)CC2)c(F)c1 [1-{4-[2-fluoro-4-(2-methyl-1H-indol-1-yl)benzoyl]piperazine-1-carbonyl}cyclopropan-1-ol], which IC50 is on record?
Answer: < 500 nM

Question: With Cc1nc2cc(-c3ccc(C(=O)N4CCN(C(=O)C5(O)CC5)CC4)cc3)ccc2[nH]1 [1-{4-[4-(2-methyl-1H-1,3-benzodiazol-5-yl)benzoyl]piperazine-1-carbonyl}cyclopropan-1-ol] as the compound, how does the IC50 read?
Answer: < 500 nM

Question: Which IC50 does the source give for O=C(c1ccc(-c2ccc3nn(C4CC4)cc3c2)cc1)N1CCN(C(=O)C2(O)CC2)CC1 [1-{4-[4-(2-cyclopropyl-2H-indazol-5-yl)benzoyl]piperazine-1-carbonyl}cyclopropan-1-ol] here?
Answer: < 500 nM

Question: Which IC50 does the source give for Nc1n[nH]c2cc(-c3ccc(C(=O)N4CCN(C(=O)C5(O)CC5)CC4)cc3)ccc12 [1-{4-[4-(3-amino-1H-indazol-6-yl)benzoyl]piperazine-1-carbonyl}cyclopropan-1-ol] here?
Answer: < 500 nM

Question: Which IC50 does the source give for Cc1nn(C)c2ccc(-c3ccc(C(=O)N4CCN(C(=O)C5(N)CCC5)CC4)c(F)c3)cc12 [1-{4-[4-(1,3-dimethyl-1H-indazol-5-yl)-2-fluorobenzoyl]piperazine-1-carbonyl}cyclobutan-1-amine] here?
Answer: < 500 nM

Question: With O=C(Nc1cccc(-c2ccc(C(=O)N3CCN(C(=O)C4(O)CC4)CC3)cc2)c1)C1CCCC1 [N-(3-{4-[4-(1-hydroxycyclopropanecarbonyl)piperazine-1-carbonyl]phenyl}phenyl)cyclopentanecarboxamide] as the compound, how does the IC50 read?
Answer: < 500 nM

Question: For O=C(c1ccc(-c2cc(Cl)ccc2F)cc1Cl)N1CCN(C(=O)C2(O)CC2)CC1 [1-{4-[2-chloro-4-(5-chloro-2-fluorophenyl)benzoyl]piperazine-1-carbonyl}cyclopropan-1-ol], which IC50 is on record?
Answer: < 500 nM

Question: Which IC50 does the source give for Cn1ncc2ccc(-c3cc(F)c(C(=O)N4CCN(C(=O)C5(O)CC5)CC4)c(F)c3)cc21 [1-{4-[2,6-difluoro-4-(1-methyl-1H-indazol-6-yl)benzoyl]piperazine-1-carbonyl}cyclopropan-1-ol] here?
Answer: < 500 nM

Question: For CCOC(=O)Nc1cccc(-c2ccc(C(=O)N3CCN(C(=O)C4(O)CC4)CC3)cc2)c1 [ethyl N-(3-{4-[4-(1-hydroxycyclopropanecarbonyl)piperazine-1-carbonyl]phenyl}phenyl)carbamate], which IC50 is on record?
Answer: < 500 nM

Question: How did the IC50 turn out when Cn1cnc2cc(-c3ccc(C(=O)N4CCN(C(=O)C5(O)CCC5)CC4)cc3)ccc21 [1-{4-[4-(1-methyl-1H-1,3-benzodiazol-5-yl)benzoyl]piperazine-1-carbonyl}cyclobutan-1-ol] was run?
Answer: < 500 nM

Question: Which IC50 does the source give for O=C(c1ccc(-c2ccc3cc(F)ccc3n2)cc1F)N1CCN(C(=O)C2(O)CC2)CC1 [1-[(4-{[2-fluoro-4-(6-fluoroquinolin-2-yl)phenyl]carbonyl}piperazin-1-yl)carbonyl]cyclopropan-1-ol] here?
Answer: < 500 nM

Question: With COc1ccc2nc(-c3ccc(C(=O)N4CCN(C(=O)C5(O)CC5)CC4)cc3)oc2c1 [1-{4-[4-(6-methoxy-1,3-benzoxazol-2-yl)benzoyl]piperazine-1-carbonyl}cyclopropan-1-ol] as the compound, how does the IC50 read?
Answer: < 500 nM

Same assay, conditions: FASN enzymatic assay; Table 2-2

Question: With Cc1ccc(-c2ccc(C(=O)N3CCN(C(=O)C4(O)CC4)CC3)cc2)cc1F [1-[(4-{[4-(3-fluoro-4-methylphenyl)phenyl]carbonyl}piperazin-1-yl)carbonyl]cyclopropan-1-ol] as the compound, how does the IC50 read?
Answer: 500 to 5000 nM

Question: For O=C(c1ccc(-c2ccc3ncccc3c2)cc1C(F)(F)F)N1CCN(C(=O)C2(O)CC2)CC1 [1-[(4-{[4-(quinolin-6-yl)-2-(trifluoromethyl)phenyl]carbonyl}piperazin-1-yl)carbonyl]cyclopropan-1-ol], which IC50 is on record?
Answer: 500 to 5000 nM

Question: With O=C(c1ccc(-c2ccc3nc(C(F)(F)F)cn3c2)cc1)N1CCN(C(=O)C2(O)CC2)CC1 [1-{[4-({4-[2-(trifluoromethyl)imidazo[1,2-a]pyridin-6-yl]phenyl}carbonyl)piperazin-1-yl]carbonyl}cyclopropan-1-ol] as the compound, how does the IC50 read?
Answer: 500 to 5000 nM

Same assay, conditions: FASN enzymatic assay; Table 2-3

Question: How did the IC50 turn out when O=C(c1ccc(-c2cccc(F)c2F)cc1)N1CCN(C(=O)C2(O)CC2)CC1 [1-[(4-{[4-(2,3-difluorophenyl)phenyl]carbonyl}piperazin-1-yl)carbonyl]cyclopropan-1-ol] was run?
Answer: ≥ 5000 nM

Question: For O=C(c1ccc(-c2cc(F)ccc2Cl)cc1)N1CCN(C(=O)C2(O)CC2)CC1 [1-[(4-{[4-(2-chloro-5-fluorophenyl)phenyl]carbonyl}piperazin-1-yl)carbonyl]cyclopropan-1-ol], which IC50 is on record?
Answer: ≥ 5000 nM

Question: Cn1ncc2cccc(-c3ccc(C(=O)N4CCN(C(=O)C5(O)CC5)CC4)cc3)c21 [1-[(4-{[4-(1-methyl-1H-indazol-7-yl)phenyl]carbonyl}piperazin-1-yl)carbonyl]cyclopropan-1-ol] was tested. Which IC50 did it give?
Answer: ≥ 5000 nM

Question: How did the IC50 turn out when O=C(c1cccc(Oc2ccccc2)c1)N1CCN(C(=O)C2(O)CC2)CC1 [1-({4-[(3-phenoxyphenyl)carbonyl]piperazin-1-yl}carbonyl)cyclopropan-1-ol] was run?
Answer: ≥ 5000 nM
